Columns and labels:
[1] = system: H3K9me2 in MDA-MB-231 cells; assay: MDA-MB-231 H3K9me2 in-cell western assay (EHMT2 ICW); format: cell-based; details: Homo sapiens, Table 3A, read-out: ICW (IC50 μM)
Source text: MDA-MB-231 cell line was purchased from ATCC (Manassas, Va., USA). RPMI/Glutamax medium, Penicillin-Streptomycin, Heat Inactivated Fetal Bovine Serum, and D-PBS were purchased from Life Technologies (Grand Island, N.Y., USA). Odyssey blocking buffer, 800 CW goat anti-mouse IgG (H+L) antibody, and Licor Odyssey Infrared Scanner were purchased from Licor Biosciences, Lincoln, Nebr., USA. H3K9me2 mouse monoclonal antibody (Cat #1220) was purchased from Abcam (Cambridge, Mass., USA). 16% Paraformaldehyde was purchased from Electron Microscopy Sciences, Hatfield, Pa., USA). MDA-MB-231 cells were maintained in complete growth medium (RPMI supplemented with 10% v/v heat inactivated fetal bovine serum) and cultured at 37° C. under 5% C02. UNC0638 was purchased from Sigma-Aldrich (St. Louis, Mo., USA).
General Procedure for MDA-MB-231 HEK9me2 in-Cell Western Assay.
Compound (100 nL) was added directly to 384-well cell plate. MDA-MB-231 cells (ATCC) were seeded in assay medium (RPMI/Glutamax supplemented with 10% v/v heat inactivated fetal bovine serum and 1% Penicillin/Streptomycin, Life Technologies) at a concentration of 3,000 cells per well to a Poly-D-Lysine coated 384-well cell culture plate with 50 μL per well. Plates were incubated at 37° C., 5% CO2 for 48 hours (BD Biosciences 356697). […] After the incubation, 50 μL per well of 8% paraformaldehyde (Electron Microscopy Sciences) in PBS was added to the plates and incubated at room temperature for 20 minutes. Plates were transferred to a Biotek 406 plate washer and washed 2 times with 100 μL per well of wash buffer (1×PBS containing 0.3% Triton X-100 (v/v)). Next, 60 μL per well of Odyssey blocking buffer (Licor Biosciences) was added to each plate and incubated for 1 hour at room temperature. Blocking buffer was removed and 20 μL of monoclonal primary antibody α-H3K9me2 (Abcam) diluted 1:800 in Odyssey buffer with 0.1% Tween 20 (v/v) were added and plates were incubated overnight (16 hours) at 4° C. Plates were washed 5 times with 100 μL per well of wash buffer. Next 20 μL per well of secondary antibody was added (1:500 800 CW donkey anti-mouse IgG (H+L) antibody (Licor Biosciences), 1:1000 DRAQ5 (Cell Signaling Technology) in Odyssey buffer with 0.1% Tween 20 (v/v)) and incubated for 1 hour at room temperature. The plates were washed 5 times with 100 μL per well wash buffer then 2 times with 100 μL per well of water. Plates were allowed to dry at room temperature then imaged on a Licor Odyssey Infrared Scanner (Licor Biosciences) which measured integrated intensity at 700 nm and 800 nm wavelengths. Both 700 and 800 channels were scanned.
First, the ratio for each well was determined by:
Each plate included fourteen control wells of DMSO only treatment (Minimum Inhibition) as well as fourteen control wells (background wells) for maximum inhibition treated with control compound UNC0638 (Background wells).
The average of the ratio values for each well was calculated and used to determine the percent inhibition for each test well in the plate. Control compound was serially diluted three-fold in DMSO for a total of 10 test concentrations beginning at 1 μM. Percent inhibition was calculated as: […]
IC50 curves were generated using triplicate wells per concentration of compound. The IC50 is the concentration of compound at which measured methylation is inhibited by 50% as interpolated from the dose response curves. IC50 values were calculated using a non-linear regression (variable slope-four parameter fit model) with by the following formula:
where Top is fixed at 100% and Bottom is fixed to 0%, [I]=concentration of inhibitor, IC50=half maximal inhibitory concentration and n=Hill Slope.

human EHMT2 913-1193 = target: T1, human EHMT2 913-1193 (Homo sapiens, UniProt Q96KQ7); assay: EHMT2 enzyme assay on histone peptide substrate; format: biochemical; details: Table 3A; histone H3 1-15 peptide, balanced conditions; read-out: EHMT2 (IC50 μM)
T1 construct: recombinant purified human EHMT2 913-1193, Viva; purchased Viva
T1 sequence (Q96KQ7 913-1193): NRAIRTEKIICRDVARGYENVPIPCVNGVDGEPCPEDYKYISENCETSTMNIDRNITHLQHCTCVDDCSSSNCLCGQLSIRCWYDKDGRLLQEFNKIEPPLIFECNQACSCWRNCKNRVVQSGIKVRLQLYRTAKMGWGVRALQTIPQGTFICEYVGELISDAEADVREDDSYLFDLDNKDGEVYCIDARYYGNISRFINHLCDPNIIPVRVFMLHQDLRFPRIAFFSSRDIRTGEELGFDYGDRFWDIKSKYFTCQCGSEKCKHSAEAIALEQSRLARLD
Source text: Recombinant purified human EHMT2 913-1193 ([…]) synthesized by Viva was used for all experiments. Biotinylated histone peptides were synthesized by Biopeptide and HPLC-purified to >95% purity. Streptavidin Flashplates and seals were purchased from PerkinElmer and 384 Well V-bottom Polypropylene Plates were from Greiner. ^3H-labeled S-adenosylmethionine (^3H-SAM) was obtained from American Radiolabeled Chemicals with a specific activity of 80 Ci/mmol. Unlabeled SAM and S-adenosylhomocysteine (SAH) were obtained from American Radiolabeled Chemicals and Sigma-Aldrich respectively. Flashplates were washed in a Biotek ELx-405 with 0.1% Tween. 384-well Flashplates and 96-well filter binding plates were read on a TopCount microplate reader (PerkinElmer). Compound serial dilutions were performed on a Freedom EVO (Tecan) and spotted into assay plates using a Thermo Scientific Matrix PlateMate (Thermo Scientific). Reagent cocktails were added by Multidrop Combi (Thermo Scientific).
10-point curves of test compounds were made on a Freedom EVO (Tecan) using serial 3-fold dilutions in DMSO, beginning at 2.5 mM (final top concentration of compound was […] and the DMSO was 2%). A 1 μL aliquot of the inhibitor dilution series was spotted in a polypropylene 384-well V-bottom plate (Greiner) using a Thermo Scientific Matrix PlateMate (Thermo Scientific). The 100% inhibition control consisted of 1 mM final concentration of the product inhibitor S-adenosylhomocysteine (SAH, Sigma-Aldrich). Compounds were incubated for 30 minutes with 40 μL per well of 0.031 nM EHMT2 (recombinant purified human EHMT2 913-1193, Viva) in 1× assay buffer (20 mM Bicine [pH 7.5], 0.002% Tween 20, 0.005% Bovine Skin Gelatin and 1 mM TCEP). 10 μL per well of substrate mix comprising assay buffer, ^3H-SAM (^3H-labeled S-adenosylmethionine, American Radiolabeled Chemicals, specific activity of 80 Ci/mmol), unlabeled SAM (American Radiolabeled Chemicals), and peptide representing histone H3 residues 1-15 containing C-terminal biotin (appended to a C-terminal amide-capped lysine, synthesized by Biopeptide and HPLC-purified to greater than 95% purity) were added to initiate the reaction (both substrates were present in the final reaction mixture at their respective Km values, an assay format referred to as “balanced conditions”). Reactions were incubated for 60 minutes at room temperature and quenched with 10 μL per well of 400 μM unlabeled SAM, then transferred to a 384-well streptavidin Flashplate (PerkinElmer) and washed in a Biotek ELx-405 well washer with 0.1% Tween after 60 minutes. 384-well Flashplates were read on a TopCount microplate reader (PerkinElmer).

IC50 [1]	IC50 (human EHMT2 913-1193)	SMILES
< 0.01 µM	< 0.01 µM	CNC1=Nc2cc(-n3cc4c(n3)CCCN(C)C4)c(Cl)cc2C12CCC2 [Compound A68]
0.01 to 0.1 µM	< 0.01 µM	CCN1CCCc2nn(-c3cc4c(cc3Cl)C3(CCC3)C(NC)=N4)cc2C1 [Compound A69]
0.01 to 0.1 µM	< 0.01 µM	CNC1=Nc2cc(-c3[nH]c4cnccc4c3C)c(Cl)cc2C12CCC2 [Compound A45]
< 0.01 µM	< 0.01 µM	CNC1=Nc2cc(-n3cc4c(n3)CCCNC4)c(Cl)cc2C12CCC2 [Compound A51]
0.01 to 0.1 µM	< 0.01 µM	CNc1cc(C)nc(Nc2ccc(OC)c(-n3ncc4c3CCCNC4)c2F)n1 [Compound A62]
0.01 to 0.1 µM	0.01 to 0.1 µM	CNC1=Nc2cc(-n3cc([C@H]4CCCN4C)nn3)c(Cl)cc2C12CCC2 [Compound A52R]
0.1 to 1 µM	< 0.01 µM	CNC1=Nc2cc(-n3cc([C@H]4CCCN4C)nn3)c(OC)cc2C12CCC2 [Compound A59R]
0.1 to 1 µM	0.01 to 0.1 µM	CNCc1cn(-c2cc3c(cc2OC)C2(CCC2)C(NC)=N3)cn1 [Compound A47]
	> 1 µM	CNc1cc(C)nc(Nc2ccc(OC)c(-n3ncc4c3CCCNC4=O)c2F)n1 [Compound A63]
	< 0.01 µM	CNc1cc(C)nc(Nc2ccc(OC)c(-n3cc4c(n3)CCCN(C)C4)c2F)n1 [Compound A66]
> 1 µM	> 1 µM	CNCc1cn(-c2cc3c(cc2Cl)C2(CCC2)C(NC)=N3)cn1 [Compound A48]
0.1 to 1 µM	0.01 to 0.1 µM	CNC1=Nc2cc(-c3cc4ccncc4[nH]3)c(Cl)cc2C12CCC2 [Compound A44]
< 0.01 µM	< 0.01 µM	CNC1=Nc2cc(-n3cc4c(n3)CCCNC4)c(OC)cc2C12CCC2 [Compound A70]
